Results taken from patent US11440910B2, “Pesticidally active heterocyclic derivatives with sulfur containing substituents” (SYNGENTA PARTICIPATIONS AG, priority 2017, dated 2022).

Tests used:
Type in all cases: in vivo
[1] = tested on: Plutella xylostella (Diamond back moth); test: Example B3: Plutella xylostella, artificial diet; conditions: 120 h, application rate 200 ppm, L2 larvae, 5 days after infestation, read-out: effect in at least one of the two categories (mortality or growth inhibition)
Experimental: Example B3: Plutella Xylostella (Diamond Back Moth)
(§1) 24-well microtiter plates with artificial diet were treated with aqueous test solutions prepared from 10′000 ppm DMSO stock solutions by pipetting. After drying, the plates were infested with L2 larvae (10 to 15 per well). The samples were assessed for mortality and growth inhibition in comparison to untreated samples 5 days after infestation.

[2] = tested on: Diabrotica balteata (Corn root worm); test: Example B4: Diabrotica balteata, maize sprouts sprayed; conditions: 96 h, application rate 200 ppm, L2 larvae, 4 days after infestation, read-out: effect in at least one of the two categories (mortality or growth inhibition)
Experimental: Example B4: Diabrotica Balteata (Corn Root Worm)
as §1, with “Maize sprouts placed onto an agar layer in 24-well” for “24-well”, “plates” for “plates with artificial diet”, “spraying.” for “pipetting.”, “(6” for “(10”, “10” for “15”, “4” for “5”

[3] = tested on: Myzus persicae (Green peach aphid); test: Example B5: Myzus persicae, sunflower leaf discs sprayed; conditions: foliar, 144 h, application rate 200 ppm, mixed ages, 6 days after infestation
Experimental: Example B5: Myzus Persicae (Green Peach Aphid)
Sunflower leaf discs were placed onto agar in a 24-well microtiter plate and sprayed with aqueous test solutions prepared from 10′000 ppm DMSO stock solutions. After drying, the leaf discs were infested with an aphid population of mixed ages. The samples were assessed for mortality 6 days after infestation.

[4] = tested on: Myzus persicae (Green peach aphid); test: Example B6: Myzus persicae, roots of pea seedlings in test solution; conditions: 144 h, test rate 24 ppm, mixed ages, 6 days after placing seedlings into test solutions
Experimental: Example B6: Myzus Persicae (Green Peach Aphid)
Roots of pea seedlings infested with an aphid population of mixed ages were placed directly into aqueous test solutions prepared from 10′000 DMSO stock solutions. The samples were assessed for mortality 6 days after placing seedlings into test solutions.

[5] = tested on: Bemisia tabaci (Cotton white fly); test: Example B7: Bemisia tabaci, cotton leaf discs sprayed; conditions: foliar, 144 h, application rate 200 ppm, adult white flies, 6 days after incubation
Experimental: Example B7: Bemisia Tabaci (Cotton White Fly)
Cotton leaf discs were placed on agar in 24-well microtiter plates and sprayed with aqueous test solutions prepared from 10′000 ppm DMSO stock solutions. After drying the leaf discs were infested with adult white flies. The samples were checked for mortality 6 days after incubation.

[6] = tested on: Euschistus heros (Neotropical brown stink bug); test: Example B8: Euschistus heros, soybean leaves sprayed; conditions: 120 h, application rate 200 ppm, N2 nymphs, 5 days after infestation, read-out: effect in at least one of the two categories (mortality or growth inhibition)
Experimental: Example B8: Euschistus Heros (Neotropical Brown Stink Bug)
Soybean leaves on agar in 24-well microtiter plates were sprayed with aqueous test solutions prepared from 10′000 ppm DMSO stock solutions. After drying the leaves were infested with N2 nymphs. The samples were assessed for mortality and growth inhibition in comparison to untreated samples 5 days after infestation.

Euschistus heros = test: Example B13: comparison against Euschistus heros, soybean plants sprayed; conditions: 120 h, Concentration 3 ppm, N2 nymphs on 2 week old soybean plants, 5 days after treatment
Experimental: Activity of compound P17 according to the present invention and of compound P15 from WO2016/026848 against Euschistus heros is summarized in Table B13.
2 week old soybean plants were sprayed with diluted aqueous test solutions. Afterwards plants were infested with 10 stink bug nymphs (N2). Soybean seeds were added as additional food source to the test system. 5 days after treatment the samples were assessed for mortality.

In the case of `CCS(=O)(=O)c1cc(C(C)(C)C#N)ccc1-c1nc2cc(C(F)(F)F)ncc2n1C` [Compound P17, 2-[3-ethylsulfonyl-4-[3-methyl-6-(trifluoromethyl)imidazo[4,5-c]pyridin-2-yl]phenyl]-2-methyl-propanenitrile], the percent effect (mortality or growth inhibition) at 200 ppm [1] is reported as at least 80%, the percent effect (mortality or growth inhibition) at 200 ppm [2] is reported as at least 80% and the mortality at 200 ppm [3] is reported as at least 80%. It also gave a mortality at 24 ppm [4] of at least 80%, a mortality at 200 ppm [5] of at least 80% and a percent effect (mortality or growth inhibition) at 200 ppm [6] of at least 80%. For the same molecule, the mortality at 3 ppm (Euschistus heros) was 95%.
